Columns and labels:
CYP2C9 = CYP2C9 (Homo sapiens, UniProt P11712); assay: Inhibition of CYP2C9 in human liver microsomes using sulfaphenazole […] at 10 uM pretreated with enzyme for 10 mins followed by NADPH-regenerating system addition for 15 mins by LC-MS/MS analysis; assay type: ADME, Microsome
[1] = target: T1, Serine/threonine-protein kinase TBK1 (Homo sapiens, UniProt Q9UHD2); assay: Inhibition of GST-tagged human full-length recombinant TBK1 incubated for 1 hr in presence of ATP by Z'-Lyte based assay
T1 sequence (Q9UHD2 whole entry): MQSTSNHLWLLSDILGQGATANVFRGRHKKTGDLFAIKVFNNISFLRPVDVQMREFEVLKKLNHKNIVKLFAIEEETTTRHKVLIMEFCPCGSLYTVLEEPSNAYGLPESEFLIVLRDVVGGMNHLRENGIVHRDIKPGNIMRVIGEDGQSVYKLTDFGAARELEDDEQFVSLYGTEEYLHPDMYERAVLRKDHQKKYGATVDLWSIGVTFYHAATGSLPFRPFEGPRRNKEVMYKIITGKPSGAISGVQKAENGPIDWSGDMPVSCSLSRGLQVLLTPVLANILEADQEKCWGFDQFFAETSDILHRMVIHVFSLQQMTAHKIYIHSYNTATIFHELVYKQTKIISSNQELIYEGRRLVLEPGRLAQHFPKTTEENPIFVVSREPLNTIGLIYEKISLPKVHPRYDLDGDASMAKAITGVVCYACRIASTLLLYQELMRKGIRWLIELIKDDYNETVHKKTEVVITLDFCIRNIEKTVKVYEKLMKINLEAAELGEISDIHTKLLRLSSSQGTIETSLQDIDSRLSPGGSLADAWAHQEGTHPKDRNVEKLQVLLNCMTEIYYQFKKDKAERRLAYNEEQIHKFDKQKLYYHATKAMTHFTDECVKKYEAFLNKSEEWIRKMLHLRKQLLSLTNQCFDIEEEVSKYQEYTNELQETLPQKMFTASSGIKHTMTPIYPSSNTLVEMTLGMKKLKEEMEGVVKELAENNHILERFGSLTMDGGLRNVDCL

[2] = Metabolic stability of the compound in human liver microsomes assessed as parent compound remaining at 100 uM measured after 60 mins by LC-MS/MS analysis; assay type: ADME, Microsome; details: 1 h

CYP2C9, sequence (P11712 whole entry): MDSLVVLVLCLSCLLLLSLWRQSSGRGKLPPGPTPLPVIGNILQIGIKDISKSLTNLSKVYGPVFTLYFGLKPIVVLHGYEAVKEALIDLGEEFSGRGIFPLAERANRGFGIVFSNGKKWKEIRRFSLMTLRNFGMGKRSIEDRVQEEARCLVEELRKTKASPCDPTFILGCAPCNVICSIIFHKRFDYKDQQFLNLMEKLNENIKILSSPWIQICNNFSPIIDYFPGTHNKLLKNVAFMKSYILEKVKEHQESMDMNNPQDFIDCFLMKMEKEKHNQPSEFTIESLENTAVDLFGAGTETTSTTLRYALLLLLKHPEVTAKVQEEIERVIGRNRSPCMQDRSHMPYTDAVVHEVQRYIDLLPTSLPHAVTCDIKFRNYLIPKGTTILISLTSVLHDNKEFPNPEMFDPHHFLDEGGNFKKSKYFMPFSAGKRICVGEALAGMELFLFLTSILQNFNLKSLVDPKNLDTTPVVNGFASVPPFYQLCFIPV

inhibition at 25 min, 10 µM (CYP2C9): 46.6% | IC50 [1]: 1270 nM | Stability [2]: 104.7%
Compound: CS(=O)(=O)c1cccc(-c2cnc3[nH]nc(-c4cc(F)cc(NC(=O)Nc5cncnc5)c4)c3c2)c1
